# Measurements from patent US20230133958A1, “COMPOUNDS USEFUL IN MODULATING EGFR AND PI3K” (Mekanistic Therapeutics LLC, priority 2021, published 2023).
# Columns and labels:
# EGFR = EGFR (Homo sapiens, UniProt P00533); assay: Z'-LYTE / Adapta biochemical kinase assay, EGFR; conditions: concentration of 100 nM/liter; read-out: Percent Inhibition of target enzymes, EGFR
# Text: (§1) The Z′-LYTE® biochemical assay employs a fluorescence-based, coupled-enzyme format and is based on the differential sensitivity of phosphorylated and non-phosphorylated peptides to proteolytic cleavage. The peptide substrate is labeled with two fluorophores—one at each end—that make up a FRET pair. In the primary reaction, the kinase transfers the gamma-phosphate of ATP to a single tyrosine, serine or threonine residue in a synthetic FRET-peptide. In the secondary reaction, a site-specific protease recognizes and cleaves non-phosphorylated FRET-peptides. Phosphorylation of FRET-peptides suppresses cleavage by the Development Reagent. Cleavage disrupts FRET between the donor (i.e., coumarin) and acceptor (i.e., fluorescein) fluorophores on the FRET-peptide, whereas uncleaved, phosphorylated FRET-peptides maintain FRET. A ratiometric method, which calculates the ratio (the Emission Ratio) of donor emission to acceptor emission after excitation of the donor fluorophore at 400 nm, is used to quantitate reaction progress.
# (§2) A significant benefit of this ratiometric method for quantitating reaction progress is the elimination of well-to-well variations in FRET-peptide concentration and signal intensities. As a result, the assay yields very high Z′-factor values (>0.7) at a low percent phosphorylation.
# (§3) Both cleaved and uncleaved FRET-peptides contribute to the fluorescence signals and therefore to the Emission Ratio. The extent of phosphorylation of the FRET-peptide can be calculated from the Emission Ratio. The Emission Ratio will remain low if the FRET-peptide is phosphorylated (i.e., no kinase inhibition) and will be high if the FRET-peptide is non-phosphorylated (i.e., kinase inhibition).
# (§4) Enzyme: The ADAPTA universal kinase assay is a homogenous, fluorescent based immunoassay for the detection of ADP. In contrast to ATP depletion assays, the ADAPTA assay is extremely sensitive to ADP formation such that a majority of the signal change occurs in the first 10-20% conversion of ATP to ADP. This makes the ADAPTA universal kinase assay ideally suited for use with low activity kinases.
# (§5) The principle of the ADAPTA universal kinase assay is outlined below. The assay itself can be divided into two phases: a kinase reaction phase, and an ADP detection phase. In the kinase reaction phase, all components required for the kinase reaction are added to the well, and the reaction is allowed to incubate for 60 minutes. After the reaction, a detection solution consisting of a europium labeled anti-ADP antibody, an Alexa Fluor® 647 labeled ADP tracer, and EDTA (to stop the kinase reaction) is added to the assay well. ADP formed by the kinase reaction (in the absence of an inhibitor) will displace the Alexa Fluor® 647 labeled ADP tracer from the antibody, resulting in a decrease in the TR-FRET signal. In the presence of an inhibitor, the amount of ADP formed by the kinase reaction is reduced, and the resulting intact antibody-tracer interaction results in a high TR-FRET signal.
# (§6) Test Compounds: The Test Compounds are screened in 1% DMSO (final) in the well. For 10 point titrations, 3-fold serial dilutions are conducted from the starting concentration of the customer’s choosing.
# (§7) Peptide/Kinase Mixtures: All Peptide/Kinase Mixtures are diluted to a 2X working concentration in the appropriate Kinase Buffer.
# (§8) ATP Solution: All ATP Solutions are diluted to a 4X working concentration in Kinase Buffer (50 mM HEPES pH 7.5, 0.01% BRIJ-35, 10 mM MgCl2,1 mM EGTA). ATP Km apparent is previously determined using a Z′-LYTE® assay.
# (§9) Development Reagent Solution: The Development Reagent is diluted in Development Buffer.
# (§10) Assay Protocol: Bar-coded Corning, low volume NBS, black 384-wellplate (Corning Cat. #4514) 1. 2.5 µL - 4X Test Compound or 100 nL 100X plus 2.4 µL kinase buffer. 2. 5 µL - 2X Peptide/Kinase Mixture. 3. 2.5 µL - 4X ATP Solution. 4. 30-second plate shake. 5. 60-minute Kinase Reaction incubation at room temperature. 6. 5 µL - Development Reagent Solution. 7. […]
# PI3Kα = PI3Kα (Homo sapiens, UniProt P42336); assay: Z'-LYTE / Adapta biochemical kinase assay, PI3Kα; conditions: concentration of 100 nM/liter; read-out: Percent Inhibition of target enzymes, PI3K A
# Text: as §1, §2, §3, §4, §5, §6, §7, §8, §9, §10
# DNA-PK = DNA-PK (Homo sapiens, UniProt P78527); assay: Z'-LYTE / Adapta biochemical kinase assay, DNA-PK; conditions: concentration of 100 nM/liter; read-out: Percent Inhibition of target enzymes, DNA-PK
# Text: as §1, §2, §3, §4, §5, §6, §7, §8, §9, §10
# Sequence of PI3Kα (P42336 whole entry): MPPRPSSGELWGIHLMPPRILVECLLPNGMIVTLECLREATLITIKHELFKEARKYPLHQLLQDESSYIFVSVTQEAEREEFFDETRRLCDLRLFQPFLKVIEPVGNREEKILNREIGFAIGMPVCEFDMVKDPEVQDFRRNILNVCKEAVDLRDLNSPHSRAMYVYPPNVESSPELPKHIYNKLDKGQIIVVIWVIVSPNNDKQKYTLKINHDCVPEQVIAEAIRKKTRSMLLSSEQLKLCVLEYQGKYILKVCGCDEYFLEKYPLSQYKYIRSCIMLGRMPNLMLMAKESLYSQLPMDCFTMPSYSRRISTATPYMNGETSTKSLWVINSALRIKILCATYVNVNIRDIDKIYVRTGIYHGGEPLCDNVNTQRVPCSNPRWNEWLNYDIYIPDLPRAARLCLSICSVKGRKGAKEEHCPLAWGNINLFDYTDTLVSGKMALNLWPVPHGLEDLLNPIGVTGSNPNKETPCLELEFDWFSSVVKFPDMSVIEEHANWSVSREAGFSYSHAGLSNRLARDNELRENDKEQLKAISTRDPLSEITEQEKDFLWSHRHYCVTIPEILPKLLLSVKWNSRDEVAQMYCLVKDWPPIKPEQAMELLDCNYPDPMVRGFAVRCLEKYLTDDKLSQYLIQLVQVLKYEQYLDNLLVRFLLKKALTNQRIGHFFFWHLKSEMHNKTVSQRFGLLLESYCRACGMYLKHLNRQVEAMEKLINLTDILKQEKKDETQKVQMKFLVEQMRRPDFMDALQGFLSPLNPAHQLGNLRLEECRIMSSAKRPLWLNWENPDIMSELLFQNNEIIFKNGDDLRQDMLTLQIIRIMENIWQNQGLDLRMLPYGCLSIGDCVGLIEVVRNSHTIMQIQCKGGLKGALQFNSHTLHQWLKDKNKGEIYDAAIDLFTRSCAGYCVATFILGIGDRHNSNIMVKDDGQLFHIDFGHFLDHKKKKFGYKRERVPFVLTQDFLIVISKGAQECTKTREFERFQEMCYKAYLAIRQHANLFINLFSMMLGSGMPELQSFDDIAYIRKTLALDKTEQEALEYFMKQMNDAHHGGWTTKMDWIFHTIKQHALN
# Sequence of PI3Kα (P27986 whole entry partner): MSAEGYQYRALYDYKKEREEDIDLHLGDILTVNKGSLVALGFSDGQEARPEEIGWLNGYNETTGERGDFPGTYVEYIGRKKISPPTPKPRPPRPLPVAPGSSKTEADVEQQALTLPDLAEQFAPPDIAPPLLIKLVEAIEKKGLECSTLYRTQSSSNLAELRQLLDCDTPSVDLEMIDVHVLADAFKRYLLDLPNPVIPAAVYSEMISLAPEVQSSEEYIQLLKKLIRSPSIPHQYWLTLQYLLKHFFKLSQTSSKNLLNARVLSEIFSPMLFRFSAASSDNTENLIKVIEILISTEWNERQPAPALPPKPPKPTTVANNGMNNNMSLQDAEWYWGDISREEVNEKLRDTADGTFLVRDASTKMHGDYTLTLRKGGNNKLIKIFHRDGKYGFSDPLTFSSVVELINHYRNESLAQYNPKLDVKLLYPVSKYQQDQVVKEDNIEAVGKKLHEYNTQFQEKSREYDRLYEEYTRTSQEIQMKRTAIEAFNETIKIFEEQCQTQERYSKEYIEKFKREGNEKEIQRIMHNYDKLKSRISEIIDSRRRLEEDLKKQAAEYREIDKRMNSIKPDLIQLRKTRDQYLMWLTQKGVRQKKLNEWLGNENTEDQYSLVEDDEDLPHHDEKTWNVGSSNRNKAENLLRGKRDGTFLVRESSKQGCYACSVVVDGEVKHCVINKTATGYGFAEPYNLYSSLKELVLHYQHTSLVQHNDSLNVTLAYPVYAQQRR
# Sequence of EGFR (P00533 25-1210): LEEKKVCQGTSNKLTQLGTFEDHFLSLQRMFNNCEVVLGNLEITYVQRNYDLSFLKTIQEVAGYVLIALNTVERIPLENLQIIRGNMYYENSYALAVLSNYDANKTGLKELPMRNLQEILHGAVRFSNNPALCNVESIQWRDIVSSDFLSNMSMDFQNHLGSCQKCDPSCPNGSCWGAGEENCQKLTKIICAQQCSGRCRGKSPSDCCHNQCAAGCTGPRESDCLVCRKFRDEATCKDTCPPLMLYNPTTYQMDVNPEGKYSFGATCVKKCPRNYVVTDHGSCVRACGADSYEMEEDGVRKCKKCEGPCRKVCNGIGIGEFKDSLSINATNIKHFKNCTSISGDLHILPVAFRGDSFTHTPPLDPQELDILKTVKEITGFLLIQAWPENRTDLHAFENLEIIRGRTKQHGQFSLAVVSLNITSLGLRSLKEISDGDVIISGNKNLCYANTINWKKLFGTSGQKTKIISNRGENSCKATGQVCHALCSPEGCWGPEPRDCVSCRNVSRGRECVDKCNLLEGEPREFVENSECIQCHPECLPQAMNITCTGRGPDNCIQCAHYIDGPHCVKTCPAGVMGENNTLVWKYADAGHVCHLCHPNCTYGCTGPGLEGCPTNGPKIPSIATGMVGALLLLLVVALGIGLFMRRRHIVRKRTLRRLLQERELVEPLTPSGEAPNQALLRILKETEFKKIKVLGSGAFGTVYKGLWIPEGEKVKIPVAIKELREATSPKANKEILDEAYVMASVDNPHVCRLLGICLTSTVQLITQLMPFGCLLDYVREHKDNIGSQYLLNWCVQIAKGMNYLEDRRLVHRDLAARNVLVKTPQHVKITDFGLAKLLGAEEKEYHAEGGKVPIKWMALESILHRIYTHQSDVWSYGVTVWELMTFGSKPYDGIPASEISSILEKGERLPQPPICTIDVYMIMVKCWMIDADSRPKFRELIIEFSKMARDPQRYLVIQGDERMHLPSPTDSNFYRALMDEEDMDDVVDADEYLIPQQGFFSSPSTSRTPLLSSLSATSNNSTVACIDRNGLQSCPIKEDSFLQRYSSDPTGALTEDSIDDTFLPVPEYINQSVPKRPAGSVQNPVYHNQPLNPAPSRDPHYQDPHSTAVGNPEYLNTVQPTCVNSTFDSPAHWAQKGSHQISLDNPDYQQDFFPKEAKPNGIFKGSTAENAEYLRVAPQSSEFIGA
inhibition at 0.1 µM (EGFR) [%],inhibition at 0.1 µM (PI3Kα) [%],inhibition at 0.1 µM (DNA-PK) [%],SMILES
> 90,80 to 90,> 90,"Cc1ncc(-c2ccc3ncnc(Nc4cccc(Cl)c4F)c3c2)cc1NS(C)(=O)=O [Compound 1, N-[5-[4-(3-chloro-2-fluoro-anilino)quinazolin-6-yl]-2-methyl-3-pyridyl] methanesulfonamide]"
> 90,> 90,80 to 90,"COc1ncc(-c2ccc3ncnc(Nc4cccc(Cl)c4F)c3c2)cc1NS(C)(=O)=O [Compound 2, N-[5-[4-(3-chloro-2-fluoro-anilino)quinazolin-6-yl]-2-methoxy-3-pyridyl] methanesulfonamide]"
> 90,10 to 80,80 to 90,"CS(=O)(=O)Nc1cncc(-c2ccc3ncnc(Nc4cccc(Cl)c4F)c3c2)c1 [Compound 3, N-[5-[4-(3-chloro-2-fluoro-anilino)quinazolin-6-yl]-3-pyridyl] methanesulfonamide]"
